# According to patent US8158352B2, “Screening of a novel hepatic syndrome and its uses” (Assistance Publique-Hopitaux de Paris, priority 2000, dated 2012):
# Tested on: hepatic bile of patients with intrahepatic cholestasis, cholesterol microcholelithiasis and MDR3 gene abnormality
# Test: Bile lipid composition of the hepatic bile from patients receiving treatment with UDCA
# Type: in vivo, human
# Conditions: for Cholesterol saturation index (CSI): calculated from Carey's critical tables
# Description: The concentration of total bile salts is measured by an enzymatic technique using 3α-hydroxysteroid dehydrogenase (Enzabile, Nycomed, Oslo, Norway). The content of total phospholipids is determined by an enzymatic method in the presence of phospholipase D and choline oxidase. The cholesterol is determined by an enzymatic reaction with cholesterol oxidase or cholesterol esterase. The cholesterol saturation indices for the hepatic bile samples are calculated from Carey's critical tables (J. Lipid Res., 1978, 19, 945-955).
# The bile lipid composition of the hepatic bile was studied using samples obtained by radioscopy of the duodenum (patients 2 and 3) or using a T tube (patients 5 and 6). The results obtained in the untreated patients or the patients receiving treatment with UDCA are given respectively in Tables V and VI below.
# [1] = Case 5, receiving treatment with UDCA
# [2] = Case 6, receiving treatment with UDCA
smiles,measurement,setting,value
"C[C@H](CCC(=O)O)[C@H]1CC[C@H]2[C@@H]3[C@@H](O)C[C@@H]4C[C@H](O)CC[C@]4(C)[C@H]3CC[C@]12C [UDCA, ursodeoxycholic acid]",Bile lipid classes: Bile salts (BS),[1],47.5 mol %
same,Bile lipid classes: Cholesterol (CH),[1],16.8 mol %
same,Bile lipid classes: Phospholipids (PL),[1],35.7 mol %
same,Concentration of bile PL,[1],7.77
same,Lipid ratios: CH/BS,[1],0.35
same,Lipid ratios: CH/PL,[1],0.47
same,Lipid ratios: PL/BS,[1],0.75
same,Cholesterol saturation index (CSI),[1],4.0
same,Bile lipid classes: Bile salts (BS),[2],72 mol %
same,Bile lipid classes: Cholesterol (CH),[2],8.2 mol %
same,Bile lipid classes: Phospholipids (PL),[2],19.7 mol %
same,Concentration of bile PL,[2],6.03
same,Lipid ratios: CH/BS,[2],0.11
same,Lipid ratios: CH/PL,[2],0.42
same,Lipid ratios: PL/BS,[2],0.27
same,Cholesterol saturation index (CSI),[2],1.8
